Drawing on US20060264419A1 (priority 2003, published 2006), this text covers IC50 for 37 molecules.

Where two headings read alike, the source gives them in different places.

The assay addresses 5-HT2A receptors (Rattus norvegicus, UniProt P14842). Kind of assay: in-vitro affinity to 5-HT2A receptors, displacement of [3H]ketanserine (Example A1). Format: binding. From the text: The 5-HT2A receptors are exposed both to [^3H]ketanserine (a substance which is known for its affinity to the receptor) and also to the test compound. The decrease in the affinity of [^3H]ketanserine to the receptor is an indication of the affinity of the test substance to the 5-HT2A receptor.
(In general: Displacement assays read how much labelled ligand stays bound in the presence of the test substance.)

Where [1] appears, read: target not given, description names affinity to 5-HT2A receptors, read-out: IC50.

Chain of 5-HT2A receptors (P14842 whole entry): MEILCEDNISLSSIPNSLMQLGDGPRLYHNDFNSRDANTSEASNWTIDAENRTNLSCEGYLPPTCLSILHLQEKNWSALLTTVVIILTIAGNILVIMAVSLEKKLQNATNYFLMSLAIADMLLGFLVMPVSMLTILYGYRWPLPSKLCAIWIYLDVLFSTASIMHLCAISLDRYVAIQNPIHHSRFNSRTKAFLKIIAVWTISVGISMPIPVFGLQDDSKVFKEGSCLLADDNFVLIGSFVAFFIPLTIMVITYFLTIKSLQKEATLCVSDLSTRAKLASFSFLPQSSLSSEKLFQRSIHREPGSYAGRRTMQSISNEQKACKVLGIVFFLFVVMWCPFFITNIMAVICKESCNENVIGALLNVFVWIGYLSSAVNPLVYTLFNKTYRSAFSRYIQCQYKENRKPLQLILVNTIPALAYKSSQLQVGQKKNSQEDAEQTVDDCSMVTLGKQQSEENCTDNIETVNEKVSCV

One may read the IC50 as the concentration at which inhibition is half-maximal. Consider `COCCN(C)Cc1cnn(-c2ccc(-c3cc(F)ccc3F)nc2)c1-c1ccccc1F` [(159), [1-[6-(2,5-Difluorophenyl)pyridin-3-yl]-5-(2-fluorophenyl)-1H-pyrazol-4-ylmethyl]-(2-methoxyethyl)-methylamine], for which, under setting [1], the half-inhibitory concentration (IC50) was 1400 nM.
`Fc1ccccc1-c1c(CNCCCn2ccnc2)cnn1-c1ccc(-c2ccccc2)cc1` [(152), [1-Biphenyl-4-yl-5-(2-fluorophenyl)-1H-pyrazol-4-ylmethyl]-(3-imidazol-1-ylpropyl)amine]: the IC50 under setting [1] amounted to 130 nM.
`Nc1ccc(NCc2cnn(-c3ccc(-c4ccc(F)cc4)nc3)c2-c2ccccc2F)cn1` [(194), N^5-{5-(2-Fluorophenyl)-1-[6-(4-fluorophenyl)pyridin-3-yl]-1H-pyrazol-4-ylmethyl}pyridine-2,5-diamine]: under setting [1], the IC50 came to 590 nM.
Same read-out and setting: in the case of `Fc1ccccc1-c1c(CN2CCNCC2)cnn1-c1ccc(-c2ccccc2)cc1` [(55), 1-[1-Biphenyl-4-yl-5-(2-fluorophenyl)-1H-pyrazol-4-ylmethyl]-piperazine] it was 26 nM; in that of `O=S1(=O)CCN(Cc2cnn(-c3ccc(-c4ccccc4)cc3)c2-c2ccccc2F)CC1` [(108), 4-[1-Biphenyl-4-yl-5-(2-fluorophenyl)-1H-pyrazol-4-ylmethyl]-thiomorpholine 1,1-dioxide], 43 nM; in that of `CN1CCN(Cc2cnn(-c3ccc(-c4ccsc4)cc3)c2-c2ccc(F)cc2)CC1` [(102), 1-[5-(4-Fluorophenyl)-1-(4-thiophen-3-ylphenyl)-1H-pyrazol-4-ylmethyl]-4-methylpiperazine], 1100 nM.
Regarding `OCCc1cnn(-c2ccc(-c3ccccc3)cc2)c1-c1ccccc1F` [Example 1059, 2-[1-Biphenyl-4-yl-5-(2-fluoro-phenyl)-1H-pyrazol-4-yl]ethanol], for the setting “read-out: HT2A IC50”, the 50% inhibitory concentration (IC50) was 470 nM.
As to `NC(=O)C1CCCN1Cc1cnn(-c2ccc(-c3ccccc3F)nc2)c1-c1ccccc1F` (stereo not shown) [(145), 1-{5-(2-Fluorophenyl)-1-[6-(2-fluorophenyl)pyridin-3-yl]-1H-pyrazol-4-ylmethyl}pyrrolidine-2-carboxamide], the IC50 under setting [1] was determined as 220 nM.
With `OC1CC2CCC(C1)N2Cc1cnn(-c2ccc(-c3ccccc3)cc2)c1-c1ccccc1F` (stereo not shown) [(83), 8-[1-Biphenyl-4-yl-5-(2-fluorophenyl)-1H-pyrazol-4-ylmethyl]-8-azabicyclo[3.2.1]octan-3-ol], the concentration for half-maximal inhibition (IC50) under setting [1] was 1100 nM.
For `CN(C)C(=O)CNCc1cnn(-c2ccc(-c3ccccc3)cc2)c1-c1ccccc1F` [(128), 2-{[1-Biphenyl-4-yl-5-(2-fluorophenyl)-1H-pyrazol-4-ylmethyl]-amino}-N,N-dimethylacetamide], the IC50 under setting [1] worked out at 200 nM.
Consider `CC1CN(Cc2cnn(-c3ccc(-c4ccccc4)cc3)c2-c2ccccc2F)CC(C)N1` (stereo not shown) [(95), 1-[1-Biphenyl-4-yl-5-(2-fluorophenyl)-1H-pyrazol-4-ylmethyl]-3,5-dimethylpiperazine], for which the IC50 under setting [1] was 100 nM.
As to `CCOC(=O)CN1CCN(Cc2cnn(-c3ccc(-c4ccccc4)cc3)c2-c2ccccc2F)CC1` [(73), Ethyl {4-[1-biphenyl-4-yl-5-(2-fluorophenyl)-1H-pyrazol-4-ylmethyl]piperazin-1-yl}acetate], the IC50 under setting [1] came out at 690 nM.
Same read-out and setting: in the case of `Cn1ccnc1CNCc1cnn(-c2ccc(-c3ccccc3)cc2)c1-c1ccccc1` [(169), (1-Biphenyl-4-yl-5-phenyl-1H-pyrazol-4-ylmethyl)-(1-methyl-1H-imidazol-2-ylmethyl)amine] it was 39 nM.
Same read-out and setting: in the case of `Fc1ccccc1-c1c(CNC2CN3CCC2CC3)cnn1-c1ccc(-c2ccccc2)cc1` (stereo not shown) [(107), (1-Azabicyclo[2.2.2]oct-3-yl)-[1-biphenyl-4-yl-5-(2-fluorophenyl)-1H-pyrazol-4-ylmethyl]amine] it was 140 nM.
Same read-out and setting: to `Fc1ccccc1-c1c(CCCN2CCOCC2)cnn1-c1ccc(-c2ccccc2)cc1` [(47), 4-{3-[1-Biphenyl-4-yl-5-(2-fluorophenyl)-1H-pyrazol-4-yl]propyl}morpholine] belongs 23 nM.
On to `CCN1CCN(Cc2cnn(-c3ccc(-c4ccc(F)cc4)cc3)c2-c2ccc(OC)cc2)CC1` [Example 1011, 1-Ethyl-4-[1-(4′-fluorobiphenyl-4-yl)-5-(4-methoxyphenyl)-1H-pyrazol-4-ylmethyl]-piperazine], for which the 50% inhibitory concentration (IC50) (read-out: HT2A IC50) amounted to 200 nM.
Consider `OCCN1CCN(Cc2cnn(-c3ccc(-c4ccccc4)cc3)c2-c2ccccc2F)CC1` [(79), 2-{4-[1-Biphenyl-4-yl-5-(2-fluorophenyl)-1H-pyrazol-4-ylmethyl]piperazin-1-yl}ethanol], for which the IC50 under setting [1] is 280 nM.
On the same count and under the same terms, in the case of `O=C(NCCO)C1CCN(Cc2cnn(-c3ccc(-c4ccccc4)cc3)c2-c2ccccc2F)CC1` [(164), N-(2-Hydroxyethyl)-1-[1-biphenyl-4-yl-5-(2-fluorophenyl)-1H-pyrazol-4-ylmethyl]piperidine-4-carboxamide] it was 270 nM.
Take `Fc1ccccc1-c1c(CN2CC3CC2CO3)cnn1-c1ccc(-c2ccccc2)cc1` (stereo not shown) [Example 996, 5-[1-Biphenyl-4-yl-5-(2-fluorophenyl)-1H-pyrazol-4-ylmethyl]-2-oxa-5-azabicyclo-[2.2.1]heptane]: where the note is “read-out: HT2A IC50”, the half-maximal inhibitory concentration (IC50) was determined as 160 nM.
On to `N#CCNCc1cnn(-c2ccc(-c3ccccc3)cc2)c1-c1ccccc1F` [Example 1034, {[1-Biphenyl-4-yl-5-(2-fluorophenyl)-1H-pyrazol-4-ylmethyl]amino}acetonitrile], for which the IC50 (read-out: HT2A IC50) is 280 nM.
As to `COCCCNCc1cnn(-c2ccc(-c3ccccc3)cc2)c1-c1ccccc1F` [(26), [1-Biphenyl-4-yl-5-(2-fluorophenyl)-1H-pyrazol-4-ylmethyl]-(3-methoxypropyl)amine], the IC50 under setting [1] worked out at 34 nM.
For the molecule `c1ccc(-c2ccc(-n3ncc(CNCc4ccncc4)c3-c3ccccc3)cc2)cc1` [(170), (1-Biphenyl-4-yl-5-phenyl-1H-pyrazol-4-ylmethyl)pyridin-4-ylmethylamine], under setting [1], the IC50 is 31 nM.
For `Cc1ccc(-c2ccc(-n3ncc(CN4CCN(C)CC4)c3-c3ccccc3F)cc2)c(F)c1F` [Example 959, 1-[1-(2′,3′-Difluoro-4′-methylbiphenyl-4-yl)-5-(2-fluorophenyl)-1H-pyrazol-4-ylmethyl]-4-methylpiperazine], the IC50 (read-out: HT2A IC50) was 60 nM.
Same read-out and setting: in the case of `O=C(CN1CCN(Cc2cnn(-c3ccc(-c4ccccc4)cc3)c2-c2ccccc2F)CC1)N1CCCC1` [Example 985, 2-{4-[1-Biphenyl-4-yl-5-(2-fluoro-phenyl)-1H-pyrazol-4-ylmethyl]piperazin-1-yl}-1-pyrrolidin-1-ylethanone] it was 122 nM; in that of `Cc1ccccc1-c1ccc(-n2ncc(CN3CCN(C)CC3)c2-c2ccccc2F)cc1` [Example 1020, 1-[5-(2-Fluorophenyl)-1-(2′-methyl-biphenyl-4-yl)-1H-pyrazol-4-ylmethyl]-4-methylpiperazine], 230 nM.
As for `CN1CCN(Cc2cnn(-c3ccc(-c4ccccc4F)cc3)c2-c2ccccc2F)CC1` [(63), 1-[1-(2′-Fluorobiphenyl-4-yl)-5-(2-fluorophenyl)-1H-pyrazol-4-ylmethyl]-4-methylpiperazine], the IC50 under setting [1] is 93 nM.
Consider `O=C(c1cnn(-c2ccc(-c3ccccc3)cc2)c1-c1ccccc1F)N1CCOCC1` [Example 1043, 1-[1-Biphenyl-4-yl-5-(2-fluorophenyl)-1H-pyrazol-4-yl]-1-morpholin-4-ylmethanone], for which, where the note is “read-out: HT2A IC50”, the 50% inhibitory concentration (IC50) came out at 360 nM.
For `Fc1ccccc1-c1c(CN2CCN(Cc3ccncc3)CC2)cnn1-c1ccc(-c2ccccc2)cc1` [(184), 1-[1-Biphenyl-4-yl-5-(2-fluorophenyl)-1H-pyrazol-4-ylmethyl]-4-pyridin-4-ylmethylpiperazine], the half-inhibitory concentration (IC50) under setting [1] was 75 nM.
On to “1-(Biphenyl-4-yltrifluoromethyl-1H-pyrazol-4-ylmethyl)-4-methylpiperazine [Example 1026]”, for which the IC50 (read-out: HT2A IC50) worked out at 260 nM.
`Fc1ccccc1-c1c(CNCCc2c[nH]cn2)cnn1-c1ccc(-c2ccccc2)cc1` [(154), [1-Biphenyl-4-yl-5-(2-fluorophenyl)-1H-pyrazol-4-ylmethyl]-[2-(1H-imidazol-4-yl)ethyl]amine]: the IC50 under setting [1] was 170 nM.
Same read-out and setting: in the case of `CN1CCC(N(C)Cc2cnn(-c3ccc(-c4ccccc4)cc3)c2-c2ccccc2F)C1` (stereo not shown) [(168), [1-Biphenyl-4-yl-5-(2-fluorophenyl)-1H-pyrazol-4-ylmethyl]-methyl-(1-methylpyrrolidin-3-yl)amine] it was 16 nM; in that of `COC(=O)c1cc(NCc2cnn(-c3ccc(-c4ccccc4)cc3)c2-c2ccccc2F)cn1C` [(162), Methyl 4-{[1-biphenyl-4-yl-5-(2-fluorophenyl)-1H-pyrazol-4-ylmethyl]amino}-1-methyl-1H-pyrrole-2-carboxylate], 120 nM.
As to `CC1CN(Cc2cnn(-c3ccc(-c4ccccc4)cc3)c2-c2ccccc2F)CC(C)N1` (stereo not shown) [Example 979, 1-[1-Biphenyl-4-yl-5-(2-fluorophenyl)-1H-pyrazol-4-ylmethyl]-3,5-dimethylpiperazine], under “read-out: HT2A IC50”, the IC50 was determined as 100 nM.
For `Cc1ccc(-c2c(CN3CCN(C)CC3)cnn2-c2ccc(-c3ccc(F)cc3)cc2)cc1` [Example 994, 1-[1-(4′-Fluorobiphenyl-4-yl)-5-p-tolyl-1H-pyrazol-4-ylmethyl]-4-methylpiperazine], the IC50 (read-out: HT2A IC50) worked out at 140 nM.
`COC(=O)CCNCc1cnn(-c2ccc(-c3ccccc3)cc2)c1-c1ccccc1F` [(112), Methyl 3-{[1-biphenyl-4-yl-5-(2-fluorophenyl)-1H-pyrazol-4-ylmethyl]amino}propionate]: the IC50 under setting [1] came to 210 nM.
Regarding `CN1CCN(C(=O)c2cnn(-c3ccc(-c4ccccc4)cc3)c2-c2ccccc2F)CC1` [(52), 1-[1-Biphenyl-4-yl-5-(2-fluorophenyl)-1H-pyrazol-4-yl]-1-(4-methylpiperazin-1-yl)methanone], under setting [1], the IC50 turned out to be 820 nM.
`CCOC(=O)CNCc1cnn(-c2ccc(-c3ccccc3F)nc2)c1-c1ccccc1F` [(148), Ethyl ({5-(2-fluorophenyl)-1-[6-(2-fluorophenyl)pyridin-3-yl]-1H-pyrazol-4-ylmethyl}amino)acetate]: under setting [1], the 50% inhibitory concentration (IC50) was found to be 1600 nM.
